Reference: US6641843B1, “Pharmaceutical compositions” (SmithKline Beecham Corporation, priority 1998, dated 2003)

Experiment: Stability and excipient compatibility of the compound in oral solution
Assay type: physicochemical
Excerpt: Solutions of (1S,4R)-cis-4-[2-amino-6-cyclopropylamino)-9H-purin-9-yl]-2-cyclopentene-1-methanol are bitter-tasting and therefore require the addition of sweeteners and taste-maskers. However, formulation of (1S,4R)-cis-4-[2-amino-6-cyclopropylamino)-9H-purin-9-yl]-2-cyclopentene-1-methanol in solution is difficult because materials containing a —COOH group present problems with (1S,4R)-cis-4-[2-amino-6-cyclopropylamino)-9H-purin-9-yl]-2-cyclopentene-1-methanol compatibility.
Advantageously, the pH may be 3.8 to 4.5.

In the case of `Nc1nc(NC2CC2)c2ncn([C@H]3C=C[C@@H](CO)C3)c2n1` [abacavir], the “adduct formation with sorbitol and/or saccharin” value (in solution) is reported as “do not lead to the formation of adducts”, the “compatibility with combinations of fructose, acesulfame and saccharin” value (in solution) is reported as “compatible” and the “compatibility with sorbitol or saccharin or a combination of sorbitol and saccharin” value (in solution) is reported as “compatible”. For the same compound, the “adduct formation with glucose” value (in solution, glucose replaces the methanol group on the cyclopentyl ring) was “forms an adduct”, the “compatibility with sucrose and glucose” value (in solution, sucrose degrades to glucose and fructose) was “incompatible” and the “effect of addition of a metal chelator on stability in solution” value (metal chelator, for example citrate) was “improves the stability”. For the same compound, the “appearance of solutions containing sorbitol” value (pH 4.5-6.5) was “color change and the formation of dark colored particulates” and the “effect of lowering the pH on color change and particulates” value (pH lowered to about 4.0) was “eliminates the color change and the formation of particulates”.
